# Measurements published in patent US20090270342A1, “IMMUNOREGULATORY AGENT” (priority 2006, published 2009).
# Experiments:
# [1] = system: anti-OVA-IgE, IgG1, IgG2a in serum; assay: Anti-OVA antibody in serum of OVA/alum-sensitized mice (Experiment 4); format: in vivo; conditions: for Anti-OVA-IgG1 in serum / Anti-OVA-IgG2a in serum / Anti-OVA-IgG1 in serum, relative value to control / Anti-OVA-IgG2a in serum, relative value to control: two weeks after the second sensitization
# Description: (§1) In order to investigate the effect of lactosucorse on systemic immunity, antibody level in serum was measured. Similarly as in Experiment 1, female BALB/c mice (six weeks old) were preliminary reared for one week on “AIN-93G”, the same standard purified diet as used in Experiment 1. Successively, “NYU-KA OLIGO 700”, a saccharide composition comprising 71.4% (w/w), on a dry solid basis, of lactosucrose commercialized by Hayashibara Shoji Inc., Okayama, Japan, was incorporated into the above purified diet, in which corn starch equal to the amount of the saccharide composition comprising lactosucrose had been removed, to give a lactosucrose content of 2% (w/w) or 5% (w/w), and five to seven mice/group were allowed to ingest the resulting test diet freely. Mice, allowed to ingest “AIN-93G”, as the standard purified diet, were used as control. At 10 days after from starting the administration of the test diet, mice were sensitized to antigen by administrating 20 μg of ovalbumin (OVA) (grade V, commercialized by Sigma Corporation) as antigen and 4.5 mg of “IMJECT®”, alum commercialized by Pierce ThermoScientific as adjuvant, into the peritoneal cavity. Successively, 15 days after from the first sensitization, the second sensitization was carried out by the same procedure. The blood was collected from caudal vein of mice at one, two, and three weeks after from the second sensitization, the serum was collected by centrifugation, and the amount of IgE to OVA was measured by EIA. In the cases of IgG1 and IgG2a, the amount of antibody was measured using serum collected at two weeks after from the second sensitization. The IgE and IgG2a titers were measured by capture EIA and IgG1 titer was measured by indirect EIA. Each titer was calculated by calibration curve prepared by using anti-OVA mouse serum (IgE: 1.760 U/ml, IgG1: 128,000 U/ml, IgG2a: 7,040 u/ml) as a standard serum. The amounts of IgE at one, two, or three weeks after from the second sensitization are in Table 5, and the amounts of IgG1 and IgG2a of two weeks after from the second sensitization are in Table 6. The percentages in parentheses in tables mean a relative value to the antibody concentration in serum of the control mice.
# [2] = system: anti-OVA-IgE, IgG1, IgG2a in serum; assay: Induction of anti-OVA antibodies by third OVA sensitization in already sensitive mice (Experiment 7); format: in vivo; conditions: for Anti-OVA-IgE in serum / Anti-OVA-IgG1 in serum / Anti-OVA-IgG2a in serum: two weeks after third sensitization of OVA-sensitive mice; for Anti-OVA-IgE in serum, relative to control / Anti-OVA-IgG1 in serum, relative to control / Anti-OVA-IgG2a in serum, relative to control: after third sensitization
# Description: as §1
# Considering the application of lactosucrose to allergic patients, mice which had been made sensitive to OVA by sensitizing with OVA were prepared and the suppressing effect of lactosucrose on the production of anti-OVA-IgE when exposed to OVA was investigated by allowing the above mice to ingest lactosucrose. Female BALB/c mice (six weeks old, five mice/group) were preliminary reared for one week on “AIN-93G”, the same standard purified diet as used in Experiment 1. Successively, similarly as in Experiment 4, 20 μg of OVA, and 4.5 mg of alum were administrated to the peritoneal cavity of the mice and further reared for two weeks on the above standard diet. Then, the second sensitization of OVA and alum was carried out by the same procedure as used in the first sensitization. After two weeks, the mice were reared for further six weeks on the test diet comprising 2% (w/w) or 5% (w/w) lactosucrose, used in Experiment 1. After checking the mice being sensitive to OVA by measuring the amount of IgE, OVA and alum were administrated to them by the same procedure as used in the first and second sensitizations. After rearing two weeks on the test diet, blood was collected from respective mice and the concentrations of anti-OVA-IgE, anti-OVA-IgG1, and anti-OVA-IgG2a were determined by the same method as used in Experiment 4.
# [3] = Lactosucrose 5% (w/w), listed as lactosucrose
structure (smiles),measurement,setting,value
"OC[C@H]1O[C@@H](O[C@H]2[C@H](O)[C@@H](O)[C@@H](O[C@]3(CO)O[C@H](CO)[C@@H](O)[C@@H]3O)O[C@@H]2CO)[C@H](O)[C@@H](O)[C@H]1O [Lactosucrose, β-D-galactosyl-(1,4)-α-D-glucosyl-(1,2)-β-D-fructoside]",Anti-OVA-IgE in serum,"[1]; Lactosucrose 2% (w/w) diet, one week after the 2nd sensitization",270 ± 160 U/ml
same,Anti-OVA-IgE in serum,"[1]; Lactosucrose 2% (w/w) diet, three weeks after the 2nd sensitization",110 ± 62 U/ml
same,Anti-OVA-IgE in serum,"[1]; Lactosucrose 2% (w/w) diet, two weeks after the 2nd sensitization",150 ± 35 U/ml
same,Anti-OVA-IgG1 in serum,[1]; Lactosucrose 2% (w/w) diet,27 ± 10 ×10^4 U/ml
same,Anti-OVA-IgG2a in serum,[1]; Lactosucrose 2% (w/w) diet,4.0 ± 3.4 ×10^4 U/ml
same,"Anti-OVA-IgE in serum, relative value to control","[1]; Lactosucrose 2% (w/w), one week after the 2nd sensitization",(87%)
same,"Anti-OVA-IgE in serum, relative value to control","[1]; Lactosucrose 2% (w/w), three weeks after the 2nd sensitization",(52%)
same,"Anti-OVA-IgE in serum, relative value to control","[1]; Lactosucrose 2% (w/w), two weeks after the 2nd sensitization",(58%)
same,"Anti-OVA-IgG1 in serum, relative value to control",[1]; Lactosucrose 2% (w/w),(68%)
same,"Anti-OVA-IgG2a in serum, relative value to control",[1]; Lactosucrose 2% (w/w),(41%)
same,Anti-OVA-IgE in serum,"[1]; Lactosucrose 5% (w/w) diet, one week after the 2nd sensitization",290 ± 77 U/ml
same,Anti-OVA-IgE in serum,"[1]; Lactosucrose 5% (w/w) diet, three weeks after the 2nd sensitization",160 ± 57 U/ml
same,Anti-OVA-IgE in serum,"[1]; Lactosucrose 5% (w/w) diet, two weeks after the 2nd sensitization",120 ± 32 U/ml
same,Anti-OVA-IgG1 in serum,[1]; Lactosucrose 5% (w/w) diet,28 ± 7.5 ×10^4 U/ml
same,Anti-OVA-IgG2a in serum,[1]; Lactosucrose 5% (w/w) diet,4.8 ± 3.8 ×10^4 U/ml
same,"Anti-OVA-IgE in serum, relative value to control","[1]; Lactosucrose 5% (w/w), one week after the 2nd sensitization",(94%)
same,"Anti-OVA-IgE in serum, relative value to control","[1]; Lactosucrose 5% (w/w), three weeks after the 2nd sensitization",(48%)
same,"Anti-OVA-IgE in serum, relative value to control","[1]; Lactosucrose 5% (w/w), two weeks after the 2nd sensitization",(46%)
same,"Anti-OVA-IgG1 in serum, relative value to control",[1]; Lactosucrose 5% (w/w),(70%)
same,"Anti-OVA-IgG2a in serum, relative value to control",[1]; Lactosucrose 5% (w/w),(49%)
same,Anti-OVA-IgE in serum,[2]; Lactosucrose 2% (w/w) diet,"1,450 ± 561 U/ml"
same,Anti-OVA-IgG1 in serum,[2]; Lactosucrose 2% (w/w) diet,678 ± 176 ×10^4 U/ml
same,Anti-OVA-IgG2a in serum,[2]; Lactosucrose 2% (w/w) diet,12.4 ± 5.02 ×10^4 U/ml
same,"Anti-OVA-IgE in serum, relative to control",[2]; Lactosucrose 2% (w/w),(72%)
same,"Anti-OVA-IgG1 in serum, relative to control",[2]; Lactosucrose 2% (w/w),(111%)
same,"Anti-OVA-IgG2a in serum, relative to control",[2]; Lactosucrose 2% (w/w),(120%)
same,"Anti-OVA-IgE in serum, relative to control","[2]; Lactosucrose 2% (w/w), listed as lactosucrose",72%
same,Anti-OVA-IgE in serum,[2]; Lactosucrose 5% (w/w) diet,"1,250 ± 264 U/ml"
same,Anti-OVA-IgG1 in serum,[2]; Lactosucrose 5% (w/w) diet,365 ± 35.1 ×10^4 U/ml
same,Anti-OVA-IgG2a in serum,[2]; Lactosucrose 5% (w/w) diet,5.77 ± 1.93 ×10^4 U/ml
same,"Anti-OVA-IgE in serum, relative to control",[2]; Lactosucrose 5% (w/w),(62%)
same,"Anti-OVA-IgG1 in serum, relative to control",[2]; Lactosucrose 5% (w/w),(60%)
same,"Anti-OVA-IgG2a in serum, relative to control",[2]; Lactosucrose 5% (w/w),(56%)
same,"Anti-OVA-IgE in serum, relative to control",[2]; [3],62%
same,"Anti-OVA-IgG1 in serum, relative to control",[2]; [3],about 50%
same,"Anti-OVA-IgG2a in serum, relative to control",[2]; [3],about 50%
